# Key:
# [1] = High fat diet (HFD) obesity mouse model: body weight, body composition, blood glucose, lipid profile; type: in vivo, mice; conditions: for body weight: HFD-fed C57/b6 male mice, levan 250 mg/Kg by gavage, last 4 weeks of 12 weeks HFD
# Procedure: (§1) Eight-week-old C57/b6 male mice (stock number 000664, Jackson Labs) were fed with a high fat diet (HFD) for 12 weeks in the presence and absence of levan having β-[2,6]-glycosidic linkages. More specifically, the mice were fed either standard diet (SD; 5.8% fat, 44.3% carbohydrate, 19.1% protein) or high fat (HFD; 60% fat, 20% carbohydrate, 20% protein) diet for 12 weeks. Levan having β-[2,6]-glycosidic linkages was administered by gavage (250 mg/Kg) for the last 4 weeks of HFD feeding for a subgroup of mice, the experimental group. Bodyweight, blood glucose, body composition, and lipid profile were determined. Vascular function and endothelial function markers were studied in aorta and mesenteric resistance arteries (MRA). Furthermore, body weight was measured weekly, lean and fat mass were measured by EchoMRl, blood glucose and lipid plasma levels were measured, and the thoracic aorta and mesenteric resistance arteries (MRA) were harvested and used for western blot, quantitative real time (qRT-) PCR and vascular reactivity using the wire myograph.
# Results, reported as means ± standard error (SE), were analyzed using GraphPad Prism 9 (GraphPad Software, San Diego, CA). T-tests and one-way ANOVA were used to compare certain paired parameters. Unless specified otherwise, the values for p are *p<0.05; **p<0.01; ***p<0.001; and ****p<0.0001.
# thoracic aorta = assay: Vascular reactivity (wire myograph) of thoracic aorta from HFD obese mice; type: in vivo
# Description: FIG. 3A a graph showing the original traces for the harvesting of the thoracic aorta from mice C, HFD and EXP, and exposing the aortas to acetylcholine (Ach) in vitro using the wire myograph (cumulative doses of Ach after precontraction to phenylephrine).
# FIG. 3B is a graph of the aorta relaxation percentage in function of the logarithm of the concentration of acetylcholine (endothelium dependent relaxation to Ach) for control mice (1), EXP mice (2) and HFD mice (3).
# FIG. 3C is a graph of the aorta relaxation percentage in function of the logarithm of the concentration of sodium nitroprusside (SNP) (endothelium independent relaxation to SNP) for control mice (1), EXP mice (2) and HFD mice (3).
# as §1
# [2] = tested on: mesenteric resistance arteries (MRA); assay: Vascular reactivity (wire myograph) of mesenteric resistance arteries from HFD obese mice; type: in vivo
# Description: FIG. 4B is a graph of the mesenteric relaxation percentage in function of the logarithm of the concentration of acetylcholine (endothelium dependent relaxation to Ach) for control mice (1), EXP mice (2) and HFD mice (3).
# FIG. 4C is a graph of the mesenteric relaxation percentage in function of the logarithm of the concentration of sodium nitroprusside (SNP) (endothelium independent relaxation to SNP) for control mice (1), EXP mice (2) and HFD mice (3).
# as §1
# [3] = tested on: inflammation, oxidative stress and endoplasmic reticulum stress markers in thoracic aorta; assay: Western blot and qRT-PCR markers in thoracic aorta of HFD obese mice; type: in vivo
# Description: FIG. 3D is a western blot of phospho-endothelial nitric oxide synthase (P-eNOS), […] endothelial nitric oxide synthase (T-eNOS), binding protein (BIP), C/EBP homologous protein (CHOP), tumor necrosis factor alpha (TNFα), P65 and glyceraldehyde-3-phosphate dehydrogenase (GAPDH), for the control mice, the HFD mice and the EXP mice.
# FIG. 3W is a heat map showing all the markers in thoracic aorta from control mice and mice fed with HFD in the presence and absence of low levan β-[2,6]-glycosidic linkages treatment.
# as §1
# [4] = tested on: inflammation, oxidative stress and endoplasmic reticulum stress markers in mesenteric arteries; assay: Western blot markers in mesenteric arteries of HFD obese mice; type: in vivo
# Description: FIG. 4D is a western blot of P-eNOS, T-eNOS, BIP, CHOP, TNFα, P65 and GAPDH, in mesenteric arteries for the control mice, the HFD mice and the EXP mice.
# as §1
# [5] = tested on: inflammation, oxidative stress and ER stress markers in proximal colon; assay: mRNA markers in proximal colon of HFD obese mice; type: in vivo
# Description: FIG. 5L is a heat map showing all the markers in proximal colon from control mice and mice fed with HFD in the presence and absence of low levan β-[2,6]-glycosidic linkages treatment.
# as §1
# [6] = tested on: inflammation, oxidative stress and ER stress markers in distal colon; assay: mRNA markers in distal colon of HFD obese mice; type: in vivo
# Description: FIG. 6L is a heat map showing all the markers in distal colon from control mice and mice fed with HFD in the presence and absence of low levan β-[2,6]-glycosidic linkages treatment.
# as §1
# [7] = Liver function (ALT, ALP) in HFD obese mice; type: in vivo; conditions: mice with obesity; levan 250 mg/Kg gavage 4 weeks
# [8] = Systolic blood pressure in angiotensin II hypertensive mice; type: in vivo; conditions: mice with hypertension (angiotensin II); vs angiotensin II without levan
# Description: FIG. 8A is a graph showing the systolic blood pressure (BP) in function of time for control mice administered vehicle (1), EXP mice administered angiotensin II and levan (2) and mice administered angiotensin II without levan (3).
# aorta = assay: Vascular contraction and relaxation of aorta from angiotensin II hypertensive mice; type: in vivo
# Description: FIG. 8C is a graph showing the aorta contraction percentage in response to the log of phenylephrine (PE) concentration for control mice administered vehicle (1), EXP mice administered angiotensin II and levan (2) and mice administered angiotensin II without levan (3).
# FIG. 8D is a graph showing the aorta contraction percentage in response to the log of thromboxane A analog (TXA) concentration for control mice administered vehicle (1), EXP mice administered angiotensin II and levan (2) and mice administered angiotensin II without levan (3).
# FIG. 8E is a graph showing the aorta contraction percentage in response to the log of angiotensin II (Ang II) concentration for control mice administered vehicle (1), EXP mice administered angiotensin II and levan (2) and mice administered angiotensin II without levan (3).
# FIG. 8F is a graph showing the aorta relaxation percentage in function of the logarithm of the concentration of acetylcholine (endothelium dependent relaxation to Ach) for control mice administered vehicle (1), EXP mice administered angiotensin II and levan (2) and mice administered angiotensin II without levan (3).
# FIG. 8G is a graph of the aorta relaxation percentage in function of the logarithm of the concentration of sodium nitroprusside (SNP) (endothelium independent relaxation to SNP) for control mice administered vehicle (1), EXP mice administered angiotensin II and levan (2) and mice administered angiotensin II without levan (3).
# [9] = tested on: inflammation, oxidative stress and endoplasmic reticulum stress markers in thoracic aorta; assay: Western blot and mRNA markers in thoracic aorta of angiotensin II hypertensive mice; type: in vivo
# Description: FIG. 8H is a western blot of IP3R1,p-Protein kinase-like endoplasmic reticulum kinase (PERK), t-PERK, P-eNOS, T-eNOS, BIP, NOX1, TNFα, P65, cytochrome c and GAPDH, in thoracic aorta for control mice administered vehicle (CTL), EXP mice administered angiotensin II and levan (A+L), and mice administered angiotensin II without levan (ANG).
# [10] = tested on: inflammation, oxidative stress and ER stress markers in proximal colon; assay: mRNA markers in proximal colon of angiotensin II hypertensive mice; type: in vivo
# Description: FIG. 9K is a heat map showing the markers in proximal colon from normotensive mice and hypertensive mice treated with and without low levan β-[2,6]-glycosidic linkages treatment.
# [11] = tested on: inflammation, oxidative stress and ER stress markers in distal colon; assay: mRNA markers in distal colon of angiotensin II hypertensive mice; type: in vivo
# Description: FIG. 10K is a heat map showing the markers in distal colon from normotensive mice and hypertensive mice treated with and without low levan β-[2,6]-glycosidic linkages treatment.
# [12] = Liver function (ALT, ALP) in angiotensin II hypertensive mice; type: in vivo
# Description: FIG. 11A is a graph showing the level of Alanine Aminotransferase/SGPT (ALT) in control mice administered vehicle, EXP mice administered angiotensin II and levan, and mice administered angiotensin II without levan.
# FIG. 11B is a graph showing the level of alkaline phosphatase (ALP) in control mice administered vehicle, EXP mice administered angiotensin II and levan, and mice administered angiotensin II without levan.
# [13] = HFD mice, levan 250 mg/Kg gavage 4 weeks, vs untreated HFD mice
# [14] = mice with obesity, levan 250 mg/Kg gavage 4 weeks
# [15] = obese mice, endothelium dependent relaxation after precontraction to phenylephrine
# [16] = listed as low MW levan β-[2,6]-glycosidic linkages
# [17] = listed as low molecular levan having β-[2,6]-glycosidic linkages
substance,measurement,setting,value
levan [low MW levan],lipid profile,"[1]; HFD mice with obesity, levan 250 mg/Kg gavage 4 weeks",improved
same,fat mass %,"[1]; HFD mice, levan 250 mg/Kg gavage 4 weeks, EchoMRI, vs untreated HFD mice",significantly decreased
same,lean mass %,"[1]; HFD mice, levan 250 mg/Kg gavage 4 weeks, EchoMRI, vs untreated HFD mice, listed as low MW levan β-[2,6]-glycosidic linkages",increased
same,lean mass %,"[1]; HFD mice, levan 250 mg/Kg gavage 4 weeks, EchoMRI, vs untreated HFD mice, listed as low molecular weight levan having β-[2,6]-glycosidic linkages",significantly increased
same,HDL,[1]; [13],significantly decreased
same,LDL,[1]; [13],significantly decreased
same,blood glucose,[1]; [13],significantly decreased
same,total cholesterol,[1]; [13],significantly decreased
same,triglyceride,[1]; [13],significantly decreased
same,body weight,"[1]; vs untreated HFD mice, listed as Low MW levan β-[2,6]-glycosidic linkages",reduced
same,body weight,"[1]; vs untreated HFD mice, listed as low molecular weight levan having β-[2,6]-glycosidic linkages",decreased
same,endothelial function of conductance artery (thoracic aortic),thoracic aorta; [14],preserve
same,vascular function in aorta,thoracic aorta; [14],improved
same,"vascular response to acetylcholine (Ach), aorta",thoracic aorta; [15],improved
same,endothelial function of resistance arteries (mesenteric artery),[2]; [14],preserve
same,vascular function in mesenteric arteries,[2]; [14],improved
same,"vascular response to acetylcholine (Ach), MRA",[2]; [15],improved
same,endoplasmic reticulum stress,[3],significantly reduced
same,inflammation,[3],significantly reduced
same,oxidative stress,[3],significantly reduced
same,endoplasmic reticulum stress,[3]; [16],decreased
same,inflammation,[3]; [16],decreased
same,oxidative stress,[3]; [16],decreased
same,endoplasmic reticulum stress,[4]; [16],decreased
same,inflammation,[4]; [16],decreased
same,oxidative stress,[4]; [16],decreased
same,endoplasmic reticulum stress,[4]; listed as low levan,significantly reduced
same,inflammation,[4]; listed as low levan,significantly reduced
same,oxidative stress,[4]; listed as low levan,significantly reduced
same,ER stress,[5]; [16],decreased
same,inflammation,[5]; [16],decreased
same,oxidative stress,[5]; [16],decreased
same,ER stress,[5]; [17],reduced
same,inflammation,[5]; [17],reduced
same,oxidative stress,[5]; [17],reduced
same,ER stress,[6]; [16],decreased
same,inflammation,[6]; [16],decreased
same,oxidative stress,[6]; [16],decreased
same,ER stress,[6]; [17],reduced
same,inflammation,[6]; [17],reduced
same,oxidative stress,[6]; [17],reduced
same,"liver function (ALT, ALP)",[7],improved
same,toxicity of the dose used,[7],not toxic
same,blood pressure,[8],reduced
same,vascular relaxation,"aorta; hypertensive mice, aorta",improving
same,exacerbated vascular contraction,"aorta; hypertensive mice, aorta contraction to PE, TXA, Ang II",reducing
same,vascular function in the aorta,aorta; mice with hypertension (angiotensin II),improved
same,endoplasmic reticulum stress,[9],significantly reduced
same,inflammation,[9],significantly reduced
same,oxidative stress,[9],significantly reduced
same,ER stress,[10],reduced
same,inflammation,[10],reduced
same,oxidative stress,[10],reduced
same,ER stress,[11],reduced
same,inflammation,[11],reduced
same,oxidative stress,[11],reduced
same,"damage to the liver function (ALT, ALP)",[12],did not cause damage
same,toxicity of dose and treatment period,[12],not toxic
